The text below walks through data of patent publication US20240308992A1 (Biopolar Youtang(Guangdong) Pharmaceutical Co., Ltd., priority 2021, published 2024).

Structures are written as SMILES. A value given as a limit tells only on which side of the number the result lay.

The target in this test is T1, Drak2 (Homo sapiens, UniProt O94768).
T1 sequence (O94768 1-372): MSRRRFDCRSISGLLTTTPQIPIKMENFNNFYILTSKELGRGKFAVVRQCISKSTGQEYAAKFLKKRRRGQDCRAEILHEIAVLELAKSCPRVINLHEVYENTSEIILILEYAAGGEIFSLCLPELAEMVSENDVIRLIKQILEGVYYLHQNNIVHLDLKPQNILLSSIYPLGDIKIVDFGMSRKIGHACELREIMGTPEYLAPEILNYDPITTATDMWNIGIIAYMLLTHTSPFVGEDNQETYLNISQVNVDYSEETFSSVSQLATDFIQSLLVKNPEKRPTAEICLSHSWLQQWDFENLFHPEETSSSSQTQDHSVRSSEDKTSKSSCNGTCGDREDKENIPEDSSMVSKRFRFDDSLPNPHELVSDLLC
The test can be described thus: Drak2 activity test, ADP-Glo kinase assay (Promega). It counts as biochemical. The following applies: inhibition of Drak2 kinase activity, 2 h room temperature, activity range classes, read-out: IC50_Drak2.
As for `CCCCC(=O)Nc1csc(-c2cncc(-c3ccc(OCCN4CCSCC4)c(OC)c3)n2)c1` [Example 193], the IC50 lay within 11 to 100 nM.

On to `CCCCCCCCCCC(=O)Nc1csc(-c2cncc(-c3ccc(C(=O)Nc4nnn[nH]4)c(OC)c3)n2)c1` [Example B21, 2-methoxy-4-(6-(4-undecanamidothiophen-2-yl)pyrazin-2-yl)-N-(1H-tetrazol-5-yl)benzamide], for which the IC50 was > 10000 nM.

Take `COc1ccc(-c2cncc(-c3cc(NC(=O)C4CCCC4)cs3)n2)cc1OC` [Example A8, N-(5-(6-(3,4-dimethoxyphenyl)pyrazin-2-yl)thiophen-3-yl)cyclopentanecarboxamide]: the IC50 fell in the range of 101 to 1000 nM.

On to `CN1CCC(C(=O)N2CCOc3cc(-c4cncc(-c5cc(NC(=O)CC6CCC6)cs5)n4)ccc32)CC1` [Example E1, 2-cyclobutyl-N-(5-(6-(4-(1-methylpiperidine-4-carbonyl)-3,4-dihydro-2H-benzo[b][1,4]oxazin-7-yl)pyrazin-2-yl)thiophen-3-yl)acetamide], for which the IC50 fell in the range of 11 to 100 nM.

As for `COc1cc(-c2cncc(-c3cc(NC(=O)CC4(c5ccc(C(F)(F)F)cc5)CCC4)cs3)n2)ccc1C(=O)N(C)C1CCN(C)CC1` [Example B85, 2-methoxy-N-methyl-N-(1-methylpiperidin-4-yl)-4-(6-(4-(2-(1-(4-(trifluoromethyl)phenyl)cyclobutyl)acetamido)thiophen-2-yl)pyrazin-2-yl)benzamide], the IC50 was in the range of 101 to 1000 nM.

For `COc1ccc(-c2cncc(-c3cc(NC(=O)CC4CCC4)cs3)n2)cc1OC` [Example A32, 2-cyclobutyl-N-(5-(6-(3,4-dimethoxyphenyl)pyrazin-2-yl)thiophen-3-yl)acetamide], the IC50 was 11 to 100 nM.

For `COc1cc(-c2cncc(-c3cc(NC(=O)CC4CC(F)(F)C4)cs3)n2)ccc1OCCN1CCOCC1` [Example 185, 2-(3,3-difluorocyclobutyl)-N-(5-(6-(3-methoxy-4-(2-morpholinylethoxy)phenyl)pyrazin-2-yl)thiophen-3-yl) acetamide], the IC50 was 11 to 100 nM.

As for `COc1cc(-c2cncc(-c3cc(NC(=O)C(N)C4CCC4)cs3)n2)ccc1C(=O)N(C)C1CCN(C)CC1` (stereo not shown) [Example B88, 4-(6-(4-(2-amino-2-cyclobutylacetamido)thiophen-2-yl)pyrazin-2-yl)-2-methoxy-N-methyl-N-(1-methylpiperidin-4-yl)benzamide], the IC50 was 101 to 1000 nM.

Regarding `COc1cc(-c2cncc(-c3cc(NC(=O)CC4CC4)cs3)n2)ccc1C(=O)N1CCC(OC)CC1` [Example B48, 2-cyclopropyl-N-(5-(6-(3-methoxy-4-(4-methoxypiperidine-1-carbonyl)phenyl)pyrazin-2-yl)thiophen-3-yl)acetamide], the IC50 fell in the range of 11 to 100 nM.

As for `O=C(Nc1csc(-c2cncc(-c3ccc4c(c3)OCO4)n2)c1)C1CCC1` [Example A24, N-(5-(6-(benzo[d][1,3]dioxol-5-yl)pyrazin-2-yl)thiophen-3-yl)cyclobutanecarboxamide], the IC50 lay within 1000 to 10000 nM.

Take `COc1cc(-c2cncc(-c3cc(NC(=O)CC4CCC4)cs3)n2)ccc1OCCN1CCn2ncnc2C1` [Example 175, 2-cyclobutyl-N-{5-[6-(3-methoxy-4-{[2-(5,6,7,8-tetrahydro [1,2,4]triazolo [1,5-a]pyrazin-7-yl)ethyl]oxy}phenyl)pyrazin-2-yl]thiophen-3-yl} acetamide]: the IC50 was 11 to 100 nM.

For `COc1ccc(-c2cncc(-c3cc(NC(=O)CC4CC4)cs3)n2)cc1OC` [Example A31, 2-cyclopropyl-N-(5-(6-(3,4-dimethoxyphenyl)pyrazin-2-yl)thiophen-3-yl)acetamide], the IC50 fell in the range of 11 to 100 nM.

Regarding `CCCCC(=O)Nc1csc(-c2cncc(-c3ccc(F)c(O)c3)n2)c1` [Example A41, N-(5-(6-(4-fluoro-3-hydroxyphenyl)pyrazin-2-yl)thiophen-3-yl)pentanamide], the IC50 lay within 101 to 1000 nM.

Turning to `COc1cc(-c2cncc(-c3cc(NC(=O)CC4CCC4)cs3)n2)ccc1C(=O)Nc1cnn(C)c1OC` [Example B43, 4-(6-(4-(2-cyclobutylacetamido)thiophen-2-yl)pyrazin-2-yl)-2-methoxy-N-(5-methoxy-1-methyl-1H-pyrazol-4-yl)benzamide], the IC50 was 101 to 1000 nM.

Turning to `O=C(CC1CCC1)Nc1csc(-c2cncc(-c3ccnc4c3ccn4CC(F)(F)F)n2)c1` [Example 215, 2-Cyclobutyl-N-(5-{6-[1-(2,2,2-trifluoroethyl)pyrrolo [2,3-b]pyridin-4-yl]pyrazin-2-yl}thiophen-3-yl) acetamide], the IC50 fell in the range of 101 to 1000 nM.

Turning to `CCCCC(=O)Nc1csc(-c2cncc(-c3cc(F)c(O)c(OC)c3)n2)c1` [Example A38, N-(5-(6-(3-fluoro-4-hydroxy-5-methoxyphenyl)pyrazin-2-yl)thiophen-3-yl)pentanamide], the IC50 was 1000 to 10000 nM.

As for `CCCCC(=O)Nc1csc(-c2cncc(-c3cccc(OC)c3OC)n2)c1` [Example A12, N-(5-(6-(2,3-dimethoxyphenyl)pyrazin-2-yl)thiophen-3-yl)pentanamide], the IC50 was 1000 to 10000 nM.

Consider `CCCCC(=O)Nc1csc(-c2cncc(-c3ccc(C(=O)Nc4cn(C)nc4OC)c(OC)c3)n2)c1` [Example B41, 2-methoxy-N-(3-methoxy-1-methyl-1H-pyrazol-4-yl)-4-(6-(4-pentanamidothiophen-2-yl)pyrazin-2-yl)benzamide], for which the IC50 fell in the range of 101 to 1000 nM.

As for `O=C(CC1CCC1)Nc1csc(-c2cncc(-c3ccnc4c3ccn4Cc3ccccc3)n2)c1` [Example 211, N-{5-[6-(1-benzylpyrrolo [2,3-b]pyridin-4-yl)pyrazin-2-yl]thiophen-3-yl}-2-cyclobutyl Acetamide], the IC50 was in the range of 101 to 1000 nM.
